Data as given in patent US6706740B2, “Fungicidal heterocyclic aromatic amides and their compositions, methods of use and preparation” (Dow AgroSciences LLC, priority 1999, dated 2004).
Like-named read-outs stand apart in the source and are kept apart here.

Tests used:
Erysiphe graminis—ERYSGT = experiment: Powdery Mildew of Wheat, in vivo whole plant, 24 Hour Protectant; settings: Erysiphe, read-out: ERYSGT in vivo 1 Day Protectant
[1] = test system: Rhizoctonia solani (RHIZSO); experiment: microbe, parasite or virus in culture; assay type: cell-based; settings: Rhizoctonia solani, read-out: RHIZSO in vitro Growth Inhibition
[2] = test system: Phytophthora infestans—PHYTIN; experiment: whole plant or invertebrate; assay type: in vivo; settings: Phytophthora, in Solanum lycopersicum, 24 h, read-out: PHYTIN in vivo 1 Day Protectant
[3] = test system: Stagonospora nodorum (Leptosphaeria nodorum—LEPTNO); experiment: In vitro fungal growth inhibition, Stagonospora nodorum (LEPTNO); assay type: cell-based; settings: Leptosphaeria, read-out: LEPTNO in vitro Growth Inhibition
[4] = test system: Mycosphaerella graminicola (Septoria tritici—SEPTTR); experiment: In vitro fungal growth inhibition, Mycosphaerella graminicola (SEPTTR); assay type: cell-based; settings: Zymoseptoria tritici, read-out: SEPTTR in vitro Growth Inhibition
[5] = test system: Puccinia recondita—PUCCRT; experiment: Brown Rust of Wheat, in vivo whole plant, 24 Hour Protectant; settings: for pest or weed control at 100 ppm: Puccinia, read-out: PUCCRT in vivo 1 Day Protectant
Ustilago maydis (USTIMA) = experiment: microbe, parasite or virus in culture; assay type: cell-based; settings: Mycosarcoma maydis, read-out: USTIMA in vitro Growth Inhibition
[6] = test system: Magnaporthe grisea (Pyricularia oryzae—PYRIOR); experiment: microbe, parasite or virus in culture; assay type: cell-based; settings: Pyricularia oryzae, read-out: PYRIOR in vitro Growth Inhibition
[7] = test system: Leptosphaeria nodorum—LEPTNO; experiment: Glume Blotch of Wheat, in vivo whole plant, 24 Hour Protectant; settings: for pest or weed control at 100 ppm: Leptosphaeria, read-out: LEPTNO in vivo 1 Day Protectant
Septoria tritici—SEPTTR = experiment: Leaf Blotch of Wheat, in vivo whole plant, 24 Hour Protectant; settings: for pest or weed control at 100 ppm: Zymoseptoria tritici, 24 h, read-out: SEPTTR in vivo 1 Day Protectant
[8] = test system: Phytophthora infestans (PHYTIN); experiment: microbe, parasite or virus in culture; assay type: cell-based; settings: Phytophthora infestans, read-out: PHYTIN in vitro Growth Inhibition
[9] = wheat plants sprayed at 100 ppm, inoculated after 24 hours, control of fungal infection vs untreated plants
[10] = 100 ppm spray, wheat, 24 hour protectant, % control of fungal infection vs untreated plants
[11] = 100 ppm spray, wheat, 24 hour protectant, control of fungal infection vs untreated plants
[12] = 100 ppm spray, 24 hour protectant, wheat, control of fungal infection vs untreated plants

SMILES	inhibition at 25 ppm [1] [%]	pest or weed control at 100 ppm [2] [%]	inhibition at 25 ppm (Ustilago maydis (USTIMA)) [%]	inhibition at 25 ppm [6] [%]	inhibition at 25 ppm [8] [%]	inhibition at 25 ppm ([3]; 25 ppm in growth medium) [%]	inhibition at 25 ppm ([4]; 25 ppm in growth medium) [%]	pest or weed control at 100 ppm (Erysiphe graminis—ERYSGT; [11]) [%]	pest or weed control at 100 ppm (Erysiphe graminis—ERYSGT; [12]) [%]	pest or weed control at 100 ppm [5, 12] [%]	pest or weed control at 100 ppm [7, 12] [%]	pest or weed control at 100 ppm (Septoria tritici—SEPTTR; [12]) [%]	also measured
CC(NC(=O)c1ccncc1O)c1ccc(Cl)cc1 (stereo not drawn) [Compound 509]	< 80	< 25	< 80	< 80	< 80	–	–	–	–	–	–	–	pest or weed control at 100 ppm (Erysiphe graminis—ERYSGT; [9]): < 25%; inhibition at 25 ppm ([3]; 25 ppm in the growth medium): < 80%; inhibition at 25 ppm ([4]; 25 ppm in the growth medium): < 80%; pest or weed control at 100 ppm [5, 9]: < 25%; pest or weed control at 100 ppm [7, 9]: < 25%; pest or weed control at 100 ppm (Septoria tritici—SEPTTR; [9]): < 25%
COc1ccc(C(=O)Oc2c(OC)ccnc2C(=O)N[C@H]2COC(=O)[C@H](Cc3ccccc3)[C@@H](OC(=O)C(C)C)[C@H](C)OC2=O)cc1 [Compound 634]	< 80	< 25	< 80	< 80	< 80	< 80	< 80	–	–	–	–	–	pest or weed control at 100 ppm (Erysiphe graminis—ERYSGT; [10]): < 25%; PUCCRT in vivo 1 Day Protectant [5, 10]: + +; LEPTNO in vivo 1 Day Protectant [7, 10]: + +; SEPTTR in vivo 1 Day Protectant (Septoria tritici—SEPTTR; [10]): + +
O=C(Nc1ccccc1Oc1cccc(C(F)(F)F)c1)c1nc(Br)ccc1O [Compound 492]	< 80	< 25	< 80	< 80	< 80	–	–	–	–	–	–	–	pest or weed control at 100 ppm (Erysiphe graminis—ERYSGT; [9]): < 25%; inhibition at 25 ppm ([3]; 25 ppm in the growth medium): < 80%; inhibition at 25 ppm ([4]; 25 ppm in the growth medium): < 80%; pest or weed control at 100 ppm [5, 9]: < 25%; pest or weed control at 100 ppm [7, 9]: < 25%; pest or weed control at 100 ppm (Septoria tritici—SEPTTR; [9]): 25 to 74%
COc1ccnc(C(=O)N[C@H]2COC(=O)[C@H](Cc3ccccc3)[C@@H](OC(=O)NC(C)C)[C@H](C)OC2=O)c1O [Compound 399]	< 80	< 25	< 80	< 80	< 80	< 80	< 80	< 25	–	–	–	–	pest or weed control at 100 ppm [5, 11]: 25 to 74%; LEPTNO in vivo 1 Day Protectant [7, 11]: + +; pest or weed control at 100 ppm (Septoria tritici—SEPTTR; [11]): 25 to 74%
COc1ccnc(C(=O)N[C@H]2C[C@@H](C(F)(F)F)C[C@@H](C(F)(F)F)C2)c1OC(C)=O [Compound 576]	< 80	< 25	< 80	< 80	< 80	–	–	–	–	–	–	–	pest or weed control at 100 ppm (Erysiphe graminis—ERYSGT; [9]): < 25%; inhibition at 25 ppm ([3]; 25 ppm in the growth medium): < 80%; inhibition at 25 ppm ([4]; 25 ppm in the growth medium): < 80%; pest or weed control at 100 ppm [5, 9]: 25 to 74%; pest or weed control at 100 ppm [7, 9]: 25 to 74%; pest or weed control at 100 ppm (Septoria tritici—SEPTTR; [9]): 25 to 74%
COc1ccnc(C(=O)NC(C)c2ccc(C(F)(F)F)cc2)c1O (stereo not drawn) [Compound 247]	< 80	< 25	< 80	< 80	< 80	> 80	> 80	–	< 25	< 25	25 to 74	25 to 74	–
COc1ccnc(C(=O)N[C@H]2COC(=O)[C@H](Cc3ccccc3)[C@@H](OC(=O)NC(C)(C)C)[C@H](C)OC2=O)c1O [Compound 400]	< 80	< 25	< 80	> 80	< 80	< 80	< 80	25 to 74	–	–	–	–	pest or weed control at 100 ppm [5, 11]: 25 to 74%; LEPTNO in vivo 1 Day Protectant [7, 11]: + +; pest or weed control at 100 ppm (Septoria tritici—SEPTTR; [11]): 25 to 74%
COc1ccnc(C(=O)NC2CC(C)(C)/C=C\CC(C)(C)C2)c1O (stereo not drawn) [Compound 283]	< 80	< 25	< 80	< 80	< 80	< 80	< 80	–	< 25	25 to 74	25 to 74	–	SEPTTR in vivo 1 Day Protectant (Septoria tritici—SEPTTR; [12]): + +
CCCCC1(C)CC(NC(=O)c2nccc(OC)c2O)CC(C)(C)C1 (stereo not drawn) [Compound 253]	< 80	< 25	< 80	> 80	> 80	> 80	> 80	–	< 25	25 to 74	25 to 74	25 to 74	–
COc1ccnc(C(=O)N[C@H]2CO[C@H](C(C)Cc3ccc(C(C)(C)C)cc3)OC2)c1O (stereo partly drawn) [Compound 316]	< 80	< 25	> 80	> 80	< 80	> 80	< 80	–	< 25	–	25 to 74	< 25	PUCCRT in vivo 1 Day Protectant [5, 12]: + +
COc1ccnc(C(=O)N[C@@H]2C[C@@H](O[Si](C)(C)C(C)(C)C)O[C@@H](C)[C@@H]2OCc2ccccc2)c1O [Compound 327]	< 80	25 to 74	< 80	< 80	< 80	–	–	< 25	–	–	–	–	inhibition at 25 ppm [3]: < 80%; inhibition at 25 ppm [4]: < 80%; pest or weed control at 100 ppm [5, 11]: < 25%; pest or weed control at 100 ppm [7, 11]: 25 to 74%; SEPTTR in vivo 1 Day Protectant (Septoria tritici—SEPTTR; [11]): + +
COc1ccnc(C(=O)Nc2ccc(Sc3ccc(C(F)(F)F)cc3)cc2)c1O [Compound 446]	< 80	25 to 74	< 80	< 80	< 80	< 80	< 80	< 25	–	–	–	–	pest or weed control at 100 ppm [5, 11]: < 25%; pest or weed control at 100 ppm [7, 11]: < 25%; pest or weed control at 100 ppm (Septoria tritici—SEPTTR; [11]): < 25%
COc1ccnc(C(=O)NC(COC(=O)C(C)Cc2ccccc2)C(=O)OC(C)C)c1O (stereo not drawn) [Compound 351]	< 80	< 25	> 80	< 80	< 80	< 80	< 80	< 25	–	–	–	–	PUCCRT in vivo 1 Day Protectant [5, 11]: + +; pest or weed control at 100 ppm [7, 11]: 25 to 74%; pest or weed control at 100 ppm (Septoria tritici—SEPTTR; [11]): < 25%
COc1ccnc(C(=O)NC2CC(C)(C)CC(C)(COCC(Cl)CCl)C2)c1O (stereo not drawn) [Compound 257]	< 80	< 25	> 80	< 80	> 80	> 80	> 80	–	< 25	25 to 74	–	25 to 74	LEPTNO in vivo 1 Day Protectant [7, 12]: + +
COc1ccnc(C(=O)NC2COC3(CC(C)(C)CC(C)(C)C3)OC2)c1O [Compound 315]	< 80	< 25	< 80	< 80	< 80	< 80	< 80	–	< 25	< 25	25 to 74	< 25	–
